Organism: Rattus norvegicus
Experiment: Open TG-GATES - Regimen: Daily Repeat
Format: toxicity, organism-based, Sprague-Dawley
Design: regimen Daily Repeat, gender Male, age 6 weeks
Settings: in vivo, po, 2 mg/kg, route gavage, dose level Low; for APTT / Bas / Eos / Fbg / Hb / Lym / MCH / MCHC / MCV / Mono / Neu / PT / Plat / RBC / Ret / WBC: tissue Blood; for KIDNEY_L / KIDNEY_R / KIDNEY_TOTAL: tissue Kidney; for LIVER: tissue Liver; for ALP / ALT / AST / BUN / CRE / Ca / Cl / DBIL / GLC / IP / K / LDH / Na / PL / RALB / TBIL / TC / TG / TP / gamma-GTP: tissue Plasma

For `OCCN1CCN(CCCN2c3ccccc3Sc3ccc(C(F)(F)F)cc32)CC1` [FLUPHENAZINE], the TERMINAL_BW (72 h, time 3 day) was 226 g, the APTT (72 h, time 3 day) was 16.5 s and the Bas (72 h, time 3 day) was 0%. It also gave an Eos (72 h, time 3 day) of 1%, a Fbg (72 h, time 3 day) of 221.4 mg/dL and a Hb (72 h, time 3 day) of 13.7 g/dL. It also gave a Lym (72 h, time 3 day) of 80%, an MCH (72 h, time 3 day) of 22.3 pg and an MCHC (72 h, time 3 day) of 33.6%. The MCV (72 h, time 3 day) was 66.3 fL, the Mono (72 h, time 3 day) was 6.8% and the Neu (72 h, time 3 day) was 12.6%. For the same molecule, the PT (72 h, time 3 day) was 12.2 s, the Plat (72 h, time 3 day) was 101.3 x10_4/uL and the RBC (72 h, time 3 day) was 613 x10_4/ul. It also gave a Ret (72 h, time 3 day) of 5.3%, a WBC (72 h, time 3 day) of 100.9 x10_2/uL and a KIDNEY_L (72 h, time 3 day) of 1 g. The KIDNEY_R (72 h, time 3 day) was 1 g, the KIDNEY_TOTAL (72 h, time 3 day) was 2 g and the LIVER (72 h, time 3 day) was 11.4 g. The ALP (72 h, time 3 day) was 869.2 IU/L, the ALT (72 h, time 3 day) was 36 IU/L and the AST (72 h, time 3 day) was 69.6 IU/L. For the same molecule, the BUN (72 h, time 3 day) was 20.4 mg/dL, the CRE (72 h, time 3 day) was 0.5 mg/dL and the Ca (72 h, time 3 day) was 11 mg/dL. The Cl (72 h, time 3 day) was 104.6 meq/L, the DBIL (72 h, time 3 day) was 0.008 mg/dL and the GLC (72 h, time 3 day) was 194.6 mg/dL. The IP (72 h, time 3 day) was 8.5 mg/dL, the K (72 h, time 3 day) was 4.8 meq/L and the LDH (72 h, time 3 day) was 156.6 IU/L. It also gave a Na (72 h, time 3 day) of 137.6 meq/L, a PL (72 h, time 3 day) of 172.8 mg/dL and an RALB (72 h, time 3 day) of 4.1 g/dL. The TBIL (72 h, time 3 day) was 0.3 mg/dL, the TC (72 h, time 3 day) was 85.2 mg/dL and the TG (72 h, time 3 day) was 95 mg/dL. It also gave a TP (72 h, time 3 day) of 5.9 g/dL, a gamma-GTP (72 h, time 3 day) of 0.6 IU/L and a TERMINAL_BW ([…], time 7 day) of 257.2 g. The TERMINAL_BW ([…], time 14 day) was 299.4 g, the TERMINAL_BW ([…], time 28 day) was 362.5 g and the APTT ([…], time 7 day) was 16.8 s. The Bas ([…], time 7 day) was 0%, the Eos ([…], time 7 day) was 0.8% and the Fbg ([…], time 7 day) was 219.6 mg/dL. The Hb ([…], time 7 day) was 13.7 g/dL, the Lym ([…], time 7 day) was 83% and the MCH ([…], time 7 day) was 21 pg. It also gave an MCHC ([…], time 7 day) of 33.6%, an MCV ([…], time 7 day) of 62.5 fL and a Mono ([…], time 7 day) of 3%. The Neu ([…], time 7 day) was 13.2%, the PT ([…], time 7 day) was 12.1 s and the Plat ([…], time 7 day) was 103.7 x10_4/uL. For the same molecule, the RBC ([…], time 7 day) was 652.6 x10_4/ul, the Ret ([…], time 7 day) was 4.5% and the WBC ([…], time 7 day) was 106.2 x10_2/uL. It also gave an APTT ([…], time 14 day) of 16.8 s, a Bas ([…], time 14 day) of 0% and an Eos ([…], time 14 day) of 0.4%. The Fbg ([…], time 14 day) was 223.2 mg/dL, the Hb ([…], time 14 day) was 14.3 g/dL and the Lym ([…], time 14 day) was 83.2%. It also gave an MCH ([…], time 14 day) of 20.6 pg, an MCHC ([…], time 14 day) of 33.5% and an MCV ([…], time 14 day) of 61.4 fL. For the same molecule, the Mono ([…], time 14 day) was 5.4%, the Neu ([…], time 14 day) was 11% and the PT ([…], time 14 day) was 11.9 s. The Plat ([…], time 14 day) was 108 x10_4/uL, the RBC ([…], time 14 day) was 696 x10_4/ul and the Ret ([…], time 14 day) was 3%. For the same molecule, the WBC ([…], time 14 day) was 149.6 x10_2/uL, the APTT ([…], time 28 day) was 17.2 s and the Bas ([…], time 28 day) was 0%. It also gave an Eos ([…], time 28 day) of 1%, a Fbg ([…], time 28 day) of 211.6 mg/dL and a Hb ([…], time 28 day) of 14.9 g/dL. The Lym ([…], time 28 day) was 84%, the MCH ([…], time 28 day) was 19.3 pg and the MCHC ([…], time 28 day) was 33.4%. It also gave an MCV ([…], time 28 day) of 57.7 fL, a Mono ([…], time 28 day) of 3.6% and a Neu ([…], time 28 day) of 11.8%. It also gave a PT ([…], time 28 day) of 12.1 s, a Plat ([…], time 28 day) of 95.6 x10_4/uL and an RBC ([…], time 28 day) of 775.2 x10_4/ul. It also gave a Ret ([…], time 28 day) of 2.4%, a WBC ([…], time 28 day) of 160.4 x10_2/uL and a KIDNEY_L ([…], time 7 day) of 1.1 g. The KIDNEY_R ([…], time 7 day) was 1.1 g, the KIDNEY_TOTAL ([…], time 7 day) was 2.2 g and the KIDNEY_L ([…], time 14 day) was 1.2 g. For the same molecule, the KIDNEY_R ([…], time 14 day) was 1.1 g, the KIDNEY_TOTAL ([…], time 14 day) was 2.3 g and the KIDNEY_L ([…], time 28 day) was 1.3 g. For the same molecule, the KIDNEY_R ([…], time 28 day) was 1.3 g, the KIDNEY_TOTAL ([…], time 28 day) was 2.6 g and the LIVER ([…], time 7 day) was 12.4 g. It also gave an LIVER ([…], time 14 day) of 13.5 g, an LIVER ([…], time 28 day) of 15.3 g and an ALP ([…], time 7 day) of 761.6 IU/L. For the same molecule, the ALT ([…], time 7 day) was 30.4 IU/L, the AST ([…], time 7 day) was 60.4 IU/L and the BUN ([…], time 7 day) was 18.8 mg/dL. It also gave a CRE ([…], time 7 day) of 0.5 mg/dL, a Ca ([…], time 7 day) of 10.4 mg/dL and a Cl ([…], time 7 day) of 105.2 meq/L. The DBIL ([…], time 7 day) was 0.004 mg/dL, the GLC ([…], time 7 day) was 187.6 mg/dL and the IP ([…], time 7 day) was 7.9 mg/dL. The K ([…], time 7 day) was 4.7 meq/L, the LDH ([…], time 7 day) was 83.6 IU/L and the Na ([…], time 7 day) was 137.6 meq/L. The PL ([…], time 7 day) was 157.6 mg/dL, the RALB ([…], time 7 day) was 4 g/dL and the TBIL ([…], time 7 day) was 0.3 mg/dL. For the same molecule, the TC ([…], time 7 day) was 74 mg/dL, the TG ([…], time 7 day) was 146.6 mg/dL and the TP ([…], time 7 day) was 5.9 g/dL. It also gave a gamma-GTP ([…], time 7 day) of 1.4 IU/L, an ALP ([…], time 14 day) of 728.4 IU/L and an ALT ([…], time 14 day) of 28 IU/L. For the same molecule, the AST ([…], time 14 day) was 56.6 IU/L, the BUN ([…], time 14 day) was 19.6 mg/dL and the CRE ([…], time 14 day) was 0.6 mg/dL. For the same molecule, the Ca ([…], time 14 day) was 10.8 mg/dL, the Cl ([…], time 14 day) was 103.4 meq/L and the DBIL ([…], time 14 day) was 0 mg/dL. For the same molecule, the GLC ([…], time 14 day) was 179.4 mg/dL, the IP ([…], time 14 day) was 7.7 mg/dL and the K ([…], time 14 day) was 4.4 meq/L. It also gave an LDH ([…], time 14 day) of 92.4 IU/L, a Na ([…], time 14 day) of 135.2 meq/L and a PL ([…], time 14 day) of 147.8 mg/dL. For the same molecule, the RALB ([…], time 14 day) was 4.1 g/dL, the TBIL ([…], time 14 day) was 0.2 mg/dL and the TC ([…], time 14 day) was 66.8 mg/dL. For the same molecule, the TG ([…], time 14 day) was 160.2 mg/dL, the TP ([…], time 14 day) was 6 g/dL and the gamma-GTP ([…], time 14 day) was 1 IU/L. It also gave an ALP ([…], time 28 day) of 528.8 IU/L, an ALT ([…], time 28 day) of 29.6 IU/L and an AST ([…], time 28 day) of 59.6 IU/L. It also gave a BUN ([…], time 28 day) of 19.8 mg/dL, a CRE ([…], time 28 day) of 0.6 mg/dL and a Ca ([…], time 28 day) of 10.5 mg/dL. The Cl ([…], time 28 day) was 106.8 meq/L, the DBIL ([…], time 28 day) was 0.002 mg/dL and the GLC ([…], time 28 day) was 179.2 mg/dL. It also gave an IP ([…], time 28 day) of 6.6 mg/dL, a K ([…], time 28 day) of 4.4 meq/L and an LDH ([…], time 28 day) of 79.6 IU/L. It also gave a Na ([…], time 28 day) of 139.8 meq/L, a PL ([…], time 28 day) of 151.4 mg/dL and an RALB ([…], time 28 day) of 4.1 g/dL. The TBIL ([…], time 28 day) was 0.2 mg/dL, the TC ([…], time 28 day) was 73.2 mg/dL and the TG ([…], time 28 day) was 131 mg/dL. It also gave a TP ([…], time 28 day) of 6.3 g/dL and a gamma-GTP ([…], time 28 day) of 2 IU/L.
